# Measurements: patent publication US20230416228A1 (Forkhead Biotherapeutics, Inc., priority 2020, published 2023)
# Counter-ions that a name gives are not always drawn.
# Molecular target: T1, human FOXO1 (constitutively active form Thr24Ala, Ser256Ala, Ser319Ala) (Homo sapiens, UniProt Q12778, S256A/S319A/T24A)
# T1 construct: expressed in transfected cells; host or cells: HEK293 cells transfected with pcDNA3.1 plasmid
# Experiment: FOXO1 inhibitor activity assay: cell-based transcriptional (luciferase) reporter assay in HEK293 cells
# Details: HEK293 cells transfected with insulin response element firefly luciferase reporter, FOXO1 and Renilla luciferase; 10-point dose response 50 μM to 2.5 nM; 24 hours
# Method in brief: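 IC50 and maximal inhibition were fitted by 4-parameter logistic regression on normalized firefly/Renilla luciferase ratios. The 0% reference used RFP in place of FOXO1, and the 100% reference was DMSO-only with all plasmids.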
# T1 sequence (Q12778 whole entry T24A/S256A/S319A): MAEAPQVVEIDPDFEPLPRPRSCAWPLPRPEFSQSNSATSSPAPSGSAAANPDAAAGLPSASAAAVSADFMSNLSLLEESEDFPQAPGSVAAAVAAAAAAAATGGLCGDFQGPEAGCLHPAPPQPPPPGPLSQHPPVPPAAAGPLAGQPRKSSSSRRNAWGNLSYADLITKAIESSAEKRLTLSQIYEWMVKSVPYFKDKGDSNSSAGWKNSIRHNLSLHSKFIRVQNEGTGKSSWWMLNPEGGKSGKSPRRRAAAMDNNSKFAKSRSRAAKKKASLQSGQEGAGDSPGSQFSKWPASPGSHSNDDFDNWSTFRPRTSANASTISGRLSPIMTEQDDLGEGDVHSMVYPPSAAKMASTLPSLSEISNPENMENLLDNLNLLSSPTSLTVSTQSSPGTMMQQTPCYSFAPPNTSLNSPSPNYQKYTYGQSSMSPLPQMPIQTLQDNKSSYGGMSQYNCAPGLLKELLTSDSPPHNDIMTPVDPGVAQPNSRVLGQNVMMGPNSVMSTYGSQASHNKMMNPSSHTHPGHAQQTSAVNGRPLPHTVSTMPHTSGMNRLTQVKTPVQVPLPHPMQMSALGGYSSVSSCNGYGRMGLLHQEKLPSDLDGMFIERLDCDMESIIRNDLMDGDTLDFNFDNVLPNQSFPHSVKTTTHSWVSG
row,IC50,SMILES
1,> 1000 nM,"COCCN1CCN(c2ccc(C(=O)Nc3cc(-c4nc5cc(OC)cc(F)c5[nH]4)[nH]n3)cn2)CC1 [Compound A-192, N-[5-(7-fluoro-5-methoxy-1H-benzimidazol-2-yl)-1H-pyrazol-3-yl]-6-[4-(2-methoxyethyl)piperazin-1-yl]pyridine-3-carboxamide]"
2,> 1000 nM,"COc1cc(F)c2[nH]c(-c3cc(NC(=O)c4ccc(N5CCC(OC)CC5)nc4)n[nH]3)nc2c1 [Compound A-193, N-[5-(7-fluoro-5-methoxy-1H-benzimidazol-2-yl)-1H-pyrazol-3-yl]-6-(4-methoxy-1-piperidyl)pyridine-3-carboxamide]"
3,100 to 300 nM,"COc1ccc(C(=O)Nc2cc(-c3nc4ccccc4[nH]3)n(CCO)n2)cc1Cl [Compound A-195, N-[5-(1H-benzimidazol-2-yl)-1-(2-hydroxyethyl)pyrazol-3-yl]-3-chloro-4-methoxy-benzamide]"
4,> 1000 nM,"COC1CN(c2ccc(C(=O)Nc3cc(-c4nc5ccccc5[nH]4)n(CCO)n3)cn2)C1 [Compound A-196, N-[5-(1H-benzimidazol-2-yl)-1-(2-hydroxyethyl)pyrazol-3-yl]-6-(3-methoxyazetidin-1-yl)pyridine-3-carboxamide]"
5,> 1000 nM,"O=C(O)CCN1CCN(c2ccc(C(=O)Nc3cc(-c4nc5ccccc5[nH]4)[nH]n3)cc2)CC1 [Compound A-197, 3-[4-[4-[[5-(1H-benzimidazol-2-yl)-1H-pyrazol-3-yl]carbamoyl]phenyl]-piperazin-1-yl]propanoic acid hydrochloride]"
6,300 to 1000 nM,"COCCN1CCN(c2ccc(C(=O)Nc3cc(-c4nc5ccccc5[nH]4)n(CCO)n3)cn2)CC1 [Compound A-198, N-[5-(1H-benzimidazol-2-yl)-1-(2-hydroxyethyl)pyrazol-3-yl]-6-[4-(2-methoxyethyl)piperazin-1-yl]pyridine-3-carboxamide]"
7,100 to 300 nM,"O=C(O)CN1CCN(c2ccc(C(=O)Nc3cc(-c4nc5ccccc5[nH]4)[nH]n3)cc2)CC1 [Compound A-199, 2-[4-[4-[[5-(1H-benzimidazol-2-yl)-1H-pyrazol-3-yl]carbamoyl]phenyl]-piperazin-1-yl]acetic acid hydrochloride]"
8,300 to 1000 nM,"CN1CCN(c2ccc(C(=O)Nc3cc(-c4nc5ccccc5[nH]4)n(CCO)n3)cn2)CC1 [Compound A-200, N-[5-(1H-benzimidazol-2-yl)-1-(2-hydroxyethyl)pyrazol-3-yl]-6-(4-methyl-piperazin-1-yl)pyridine-3-carboxamide]"
9,300 to 1000 nM,"CN1CCN(c2ccc(C(=O)Nc3cc(-c4nc5ccccc5[nH]4)n(CCO)n3)cc2)CC1 [Compound A-201, N-[5-(1H-benzimidazol-2-yl)-1-(2-hydroxyethyl)pyrazol-3-yl]-4-(4-methylpiperazin-1-yl)benzamide]"
10,< 100 nM,"Cn1nc(NC(=O)c2ccc(OCCO)c(Cl)c2)cc1-c1nc2ccccc2[nH]1 [Compound A-202, N-[5-(1H-benzimidazol-2-yl)-1-methyl-pyrazol-3-yl]-3-chloro-4-(2-hydroxyethoxy)benzamide]"
11,100 to 300 nM,"Cn1nc(NC(=O)c2ccc(N3CCN(C4COC4)CC3)nc2)cc1-c1nc2ccccc2[nH]1 [Compound A-203, N-[5-(1H-benzimidazol-2-yl)-1-methyl-pyrazol-3-yl]-6-[4-(oxetan-3-yl)piperazin-1-yl]pyridine-3-carboxamide]"
12,100 to 300 nM,"Cn1nc(NC(=O)c2ccc(N3CCN(CCO)CC3)nc2)cc1-c1nc2ccccc2[nH]1 [Compound A-204, N-[5-(1H-benzimidazol-2-yl)-1-methyl-pyrazol-3-yl]-6-[4-(2-hydroxy-ethyl)piperazin-1-yl]pyridine-3-carboxamide]"
13,300 to 1000 nM,"Cn1nc(NC(=O)c2cnc(N3CCC(N4CCOCC4)CC3)cn2)cc1-c1nc2ccccc2[nH]1 [Compound A-205, N-[5-(1H-benzimidazol-2-yl)-1-methyl-pyrazol-3-yl]-5-(4-morpholino-1-piperidyl)pyrazine-2-carboxamide]"
14,> 1000 nM,"Cn1nc(NC(=O)c2cnc(N3CCC(N4CCOCC4)CC3)nc2)cc1-c1nc2ccccc2[nH]1 [Compound A-206, N-[5-(1H-benzimidazol-2-yl)-1-methyl-pyrazol-3-yl]-2-(4-morpholino-1-piperidyl)pyrimidine-5-carboxamide]"
15,300 to 1000 nM,"Cn1nc(NC(=O)c2ccc(N3CCC(N4CCOCC4)CC3)nn2)cc1-c1nc2ccccc2[nH]1 [Compound A-207, N-[5-(1H-benzimidazol-2-yl)-1-methyl-pyrazol-3-yl]-6-(4-morpholino-1-piperidyl)pyridazine-3-carboxamide]"
16,100 to 300 nM,"Cn1nc(NC(=O)c2ccc(N3CCC(N4CCOCC4)CC3)nc2)cc1-c1nc2ccccc2[nH]1 [Compound A-208, N-[5-(1H-benzimidazol-2-yl)-1-methyl-pyrazol-3-yl]-6-(4-morpholino-1-piperidyl)pyridine-3-carboxamide]"
17,< 100 nM,"CN1CCN(c2ccc(C(=O)Nc3cc(-c4nc5ccccc5[nH]4)n(C)n3)cn2)CC1 [Compound A-209, N-[5-(1H-benzimidazol-2-yl)-1-methyl-pyrazol-3-yl]-6-(4-methyl-piperazin-1-yl)pyridine-3-carboxamide]"
18,< 100 nM,"Cn1nc(NC(=O)c2ccc(N3CCOCC3)nc2)cc1-c1nc2ccccc2[nH]1 [Compound A-210, N-[5-(1H-benzimidazol-2-yl)-1-methyl-pyrazol-3-yl]-6-morpholino-pyridine-3-carboxamide]"
19,100 to 300 nM,"COc1cc(F)c2[nH]c(-c3cc(NC(=O)c4ccc(N5CCN(CCO)CC5)nc4)nn3C)nc2c1 [Compound A-211, N-[5-(7-fluoro-5-methoxy-1H-benzimidazol-2-yl)-1-methyl-pyrazol-3-yl]-6-[4-(2-hydroxyethyl)piperazin-1-yl]pyridine-3-carboxamide]"
20,< 100 nM,"CN1CCN(c2ccc(C(=O)Nc3cc(-c4nc5ccccc5[nH]4)n(C)n3)cc2)CC1 [Compound A-212, N-[5-(1H-benzimidazol-2-yl)-1-methyl-pyrazol-3-yl]-4-(4-methyl-piperazin-1-yl)benzamide]"
21,100 to 300 nM,"Cn1nc(NC(=O)c2ccc(N3CCN(CCO)CC3)cc2)cc1-c1nc2ccccc2[nH]1 [Compound A-213, N-[5-(1H-benzimidazol-2-yl)-1-methyl-pyrazol-3-yl]-4-[4-(2-hydroxy-ethyl)piperazin-1-yl]benzamide]"
22,< 100 nM,"COc1cc(F)c2[nH]c(-c3cc(NC(=O)c4ccc(N5CCN(C6COC6)CC5)nc4)nn3C)nc2c1 [Compound A-214, N-[5-(7-fluoro-5-methoxy-1H-benzimidazol-2-yl)-1-methyl-pyrazol-3-yl]-6-[4-(oxetan-3-yl)piperazin-1-yl]pyridine-3-carboxamide]"
23,100 to 300 nM,"Cn1nc(NC(=O)c2ccc(N3CCN(C4COC4)CC3)cc2)cc1-c1nc2ccccc2[nH]1 [Compound A-215, N-[5-(1H-benzimidazol-2-yl)-1-methyl-pyrazol-3-yl]-4-[4-(oxetan-3-yl)piperazin-1-yl]benzamide]"
24,100 to 300 nM,"Cn1nc(NC(=O)c2ccc(N3CCNCC3)nc2)cc1-c1nc2ccccc2[nH]1 [Compound A-216, N-[5-(1H-benzimidazol-2-yl)-1-methyl-pyrazol-3-yl]-6-piperazin-1-yl-pyridine-3-carboxamide]"
25,100 to 300 nM,"Cn1nc(NC(=O)c2ccc(N3CCNCC3)cc2)cc1-c1nc2ccccc2[nH]1 [Compound A-217, N-[5-(1H-benzimidazol-2-yl)-1-methyl-pyrazol-3-yl]-4-piperazin-1-yl-benzamide]"
